Test results reported in patent US6967196B1, “Sulfonamide compounds and uses thereof” (Bristol-Myers Squibb Company, priority 1999, dated 2005).
Counter-ions that a name gives are not always drawn. Like-named read-outs stand apart in the source and are kept apart here.

System: amyloid β production in transfected H4 (human neuroglioma) cells stably expressing APP constructs
Assay: In vitro cell-based assay of inhibitors of amyloid β production (ELISA)
Conditions: amyloid β in medium by ELISA
Procedure, shortened: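 Aβ secreted into the medium was read by sandwich ELISA (monoclonal capture for the Aβ C-terminus, polyclonal detection for the N-terminus) and calibrated on a standard curve. Before this, APP-expressing H4 cells were exposed to compound for ~16 h at an initial 10-100 μM, with actives then retested in dose-response.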

[1] = Homo sapiens, 16 h, transfected H4 cells stably expressing APP constructs, approximately 16 hours incubation, read-out: ACTIVITY (IC50, inhibition of amyloid β production)
[2] = transfected H4 cells stably expressing APP, approximately 16 hours incubation, Table B, read-out: ACTIVITY (IC50, inhibition of amyloid β production)
[3] = Homo sapiens, 16 h, transfected H4 cells expressing APP, approximately 16 hours incubation, read-out: ACTIVITY (IC50, inhibition of amyloid β production)
[4] = Homo sapiens, 16 h, transfected H4 cells stably expressing APP, approximately 16 hours incubation, read-out: ACTIVITY (IC50, inhibition of amyloid β production)
[5] = transfected H4 cells stably expressing APP, approximately 16 hours incubation, read-out: ACTIVITY (IC50, inhibition of amyloid β production)
[6] = transfected H4 cells stably expressing APP constructs, approximately 16 hours incubation, read-out: ACTIVITY (IC50, inhibition of amyloid β production)
[7] = transfected H4 cells stably expressing APP, approx. 16 h incubation, read-out: ACTIVITY (IC50, inhibition of amyloid β production)
[8] = Homo sapiens, 16 h, transfected H4 cells stably expressing APP, approximately 16 hours incubation, Table B, read-out: ACTIVITY (IC50, inhibition of amyloid β production)

## CNS(=O)(=O)CCC[C@@H](C)N(c1cc(Cl)ccc1F)S(=O)(=O)c1ccc(Cl)cc1 [Example 1203, 4-chloro-N-(5-chloro-2-fluorophenyl)-N-[4-[(methylamino)sulfonyl]-1(R)-methylbutyl]benzenesulfonamide]
[1]
  IC50: ≤ 0.025 µM

## 3-[2-((1R)-1-{[(4-chlorophenyl)sulfonyl]-2,5-difluoroanilino}ethyl)phenyl]-N-(2,5-difluorobenzyl)propanamide [Example 383]
[2]
  IC50: 0.05 to 0.1 µM

## C[C@H](C(=O)NCC(C)(C)CO)N(c1cc(Cl)ccc1F)S(=O)(=O)c1ccc(Cl)cc1 [Example 1328]
[3]
  IC50: 0.1 to 0.5 µM

## O=C(c1ccccc1Br)N1CCCCC1CCOc1ccccc1CN(c1cc(F)ccc1F)S(=O)(=O)c1ccc(Cl)cc1 (stereo not drawn) [Example 942, N-(2-{2-[1-(2-bromobenzoyl)-2-piperidinyl]ethoxy}benzyl)-4-chloro-N-(2,5-difluorophenyl)benzenesulfonamide]
[4]
  IC50: > 0.5 µM

## O=C(OC[C@H](c1ccccc1)N(c1cc(F)ccc1F)S(=O)(=O)c1ccc(Cl)cc1)c1cccnc1 [Example 1006, (2S)-2-({[(4-chlorophenyl)sulfonyl]-2,5-difluoroanilino}-2-phenylethyl nicotinate]
[5]
  IC50: > 0.5 µM

## O=S(=O)(c1ccc(Cl)cc1)N(Cc1ccccc1OCCCN1CCCCC1)CC1CCCC1 [Example 848, 4-chloro-N-(cyclopentylmethyl)-N-{2-[3-(1-piperidinyl)propoxy]benzyl}benzenesulfonamide hydrochloride]
[4]
  IC50: 0.1 to 0.5 µM

## CC(C)Oc1c(NCC[C@@H](C)N(c2cc(F)ccc2F)S(=O)(=O)c2ccc(Cl)cc2)c(=O)c1=O [Example 1125, 4-chloro-N-(2,5-difluorophenyl)-N-[3-(2-isopropoxy-3,4-dioxo-1-cyclobutenyl)amine-1(R)-methylpropyl]benzenesulfonamide]
[6]
  IC50: 0.05 to 0.1 µM

## O=S(=O)(c1ccccc1)N(Cc1ccccc1OCCCN1CCC(O)C1)c1ccccc1 (stereo not drawn) [Example 809, N-{2-[3-(3-hydroxy-1-pyrrolidinyl)propoxy]benzyl}-N-phenylbenzenesulfonamide hydrochloride]
[4]
  IC50: 0.1 to 0.5 µM

## C=Cc1ccccc1[C@@H](C)N(c1cc(F)ccc1F)S(=O)(=O)c1ccc(Cl)cc1 [Example 874, 4-chloro-N-(2,5-difluorophenyl)-N-[(1R)-1-(2-vinylphenyl)ethyl]benzenesulfonamide]
[4]
  IC50: 0.1 to 0.5 µM

## O=S(=O)(c1ccc(Cl)cc1)N(Cc1ccccc1OCc1ccccn1)c1ccccc1 [Example 1092, 4-chloro-N-phenyl-N-[2-(2-pyridinylmethoxy)benzyl]benzenesulfonamide hydrochloride]
[1]
  IC50: > 10 µM

## N-{3-[2-(1-{[(4-chlorophenyl)sulfonyl]-2,5-difluoroanilino}ethyl)phenoxy]propyl}-N-methyl-2-naphthalenesulfonamide [Example 671]
[7]
  IC50: 0.1 to 0.5 µM

## CCN(CCOc1ccccc1C(C)N(c1cc(F)ccc1F)S(=O)(=O)c1ccc(Cl)cc1)C(=O)CSc1ccccc1 (stereo not drawn) [Example 417, N-{2-[2-(1-{[(4-chlorophenyl)sulfonyl]-2,5-difluoroanilino}ethyl)phenoxy]ethyl}-N-ethyl-2-(phenylsulfanyl)acetamide]
[8]
  IC50: 0.05 to 0.1 µM

## O=S(=O)(c1ccc(Cl)cc1)N(Nc1cc(F)ccc1F)[C@H](CO)c1ccccc1 [Example 868, 4-chloro-N-(2,5-difluoroanilino)-N-[(1S)-2-hydroxy-1-phenylethyl]benzenesulfonamide]
[4]
  IC50: 0.1 to 0.5 µM

## C[C@H](CCCS(C)(=O)=O)N(c1cc(F)ccc1F)S(=O)(=O)c1ccc(Cl)cc1 [Example 1170, 4-chloro-N-[2,5-difluorophenyl]-N-[1(R)-methyl-(4-methylsulfonyl)butyl]benzenesulfonamide]
[6]
  IC50: ≤ 0.025 µM

## N-{4-[2-(1-{[(4-chlorophenyl)sulfonyl]-2,5-difluoroanilino}ethyl)phenoxy]butyl}-2-cyclohexyl-N-ethylacetamide [Example 785]
[7]
  IC50: 0.1 to 0.5 µM

## CC(C)[C@@H](NC(=O)CCC[C@@H](C)N(c1cc(Cl)ccc1F)S(=O)(=O)c1ccc(Cl)cc1)C(=O)O [Example 1270, (R)-4-Chloro-N-(5-chloro-2-fluorophenyl)-N-[5-[N-(R)-[1-(carboxy)-2-methylpropyl]amino]-1-methyl-5-oxopentyl]benzenesulfonamide]
[6]
  IC50: 0.025 to 0.05 µM

## O=[N+]([O-])c1cc(Cl)ccc1COC1CCCCO1 (stereo not drawn) [Example 2, 4-Chloro-2-nitro-1-[[(tetrahydro-2H-pyran-2-yl)oxy]methyl]benzene]
Table B, transfected H4 cells stably expressing APP, approximately 16 hours incubation, read-out: ACTIVITY (inhibitory concentration IC50, inhibition of amyloid β production)
  IC50: ≤ 0.025 µM

## CC(c1ccccc1OCCCN(C)S(=O)(=O)c1ccc([N+](=O)[O-])cc1)N(c1cc(F)ccc1F)S(=O)(=O)c1ccc(Cl)cc1 (stereo not drawn) [Example 410, 4-chloro-N-(2,5-difluorophenyl)-N-{1-[2-(3-{methyl[(4-nitrophenyl)sulfonyl]amino}propoxy)phenyl]ethyl}benzenesulfonamide]
[8]
  IC50: 0.05 to 0.1 µM

## C[C@H](c1ccc(F)cc1COCc1ccccn1)N(c1cc(F)ccc1F)S(=O)(=O)c1ccc(Cl)cc1 [Example 400, 4-chloro-N-(2,5-difluorophenyl)-N-((1R)-1-{4-fluoro-2-[(2-pyridinylmethoxy)methyl]phenyl}ethyl)benzenesulfonamide]
[8]
  IC50: 0.05 to 0.1 µM

## O=S(=O)(c1ccc(Cl)cc1)N(Cc1ccccc1OCCCN1CCCC1)c1ccccc1 [Example 718, 4-chloro-N-phenyl-N-{2-[3-(1-pyrrolidinyl)propoxy]benzyl}benzenesulfonamide hydrochloride]
Homo sapiens, 16 h, transfected H4 cells stably expressing APP, approx. 16 h incubation, read-out: ACTIVITY (IC50, inhibition of amyloid β production)
  IC50: 0.1 to 0.5 µM

## C[C@H](C(=O)NC1CCCC1)C(c1cc(Cl)ccc1F)S(=O)(=O)c1ccc(Cl)cc1 (stereo partly drawn) [Example 1307]
[3]
  IC50: 0.1 to 0.5 µM

## CCN(CCNC(=O)[C@@H](C)N(c1cc(Cl)ccc1F)S(=O)(=O)c1ccc(Cl)cc1)c1cccc(C)c1 [Example 1315]
[3]
  IC50: > 0.5 µM

## O=C1CCC(=O)N1CCCOc1ccccc1CN(c1cc(F)ccc1F)S(=O)(=O)c1ccc(Cl)cc1 [Example 399, 4-chloro-N-(2,5-difluorophenyl)-N-{2-[3-(2,5-dioxo-1-pyrrolidinyl)propoxy]benzyl}benzenesulfonamide]
[8]
  IC50: 0.05 to 0.1 µM

## O=S(=O)(c1ccc(Cl)cc1)N(Cc1ccccc1CCCCCN1CCCCC1)c1ccccc1 [Example 978, 4-chloro-N-phenyl-N-{2-[5-(1-piperidinyl)pentyl]benzyl}benzenesulfonamide hydrochloride]
[4]
  IC50: > 0.5 µM

## CC(C)C[C@H](NC(=O)CCC[C@@H](C)N(c1cc(Cl)ccc1F)S(=O)(=O)c1ccc(Cl)cc1)C(=O)O [Example 546, (R)-4-Chloro-N-(5-chloro-2-fluorophenyl)-N-[5-[N-(S)-[1-(carboxy)-3-methylbutyl]amino]-1-methyl-5-oxopentyl]benzenesulfonamide]
[7]
  IC50: 0.1 to 0.5 µM

## O=S(=O)(c1ccc(Cl)cc1)N(Cc1ccccc1OCCCN1CCCCC1)C1Cc2ccccc2C1 [Example 1020, 4-chloro-N-(2,3-dihydro-1H-inden-2-yl)-N-{2-[3-(1-piperidinyl)propoxy]benzyl}benzenesulfonamide hydrochloride]
[4]
  IC50: > 0.5 µM

## 3-bromo-N-{3-[2-(1-{[(4-chlorophenyl)sulfonyl]-2,5-difluoroanilino}ethyl)phenoxy]propyl}-N-methylbenzamide [Example 820]
[5]
  IC50: 0.1 to 0.5 µM

## (2R)-2-{[(4-chlorophenyl)sulfonyl]-2,5-difluoroanilino}propyl nicotinate [Example 1058]
[5]
  IC50: > 0.5 µM

## C[C@H](c1ccc(F)cc1CCCO)N(c1cc(F)ccc1F)S(=O)(=O)c1ccc(Cl)cc1 [Example 1063, 4-chloro-N-(2,5-difluorophenyl)-N-((1R)-1-[4-fluoro-2-(3-hydroxypropyl)phenyl]ethyl}benzenesulfonamide]
[4]
  IC50: > 0.5 µM

## CC1CC(C)CN(CCCOc2ccccc2CN(c2ccccc2)S(=O)(=O)c2ccc(Cl)cc2)C1 (stereo not drawn) [Example 303, 4-Chloro-N-{2-[3-(3,5-dimethyl-1-piperidinyl)propoxy]benzyl}-N-phenylbenzenesulfonamide Hydrochloride]
[2]
  IC50: 0.05 to 0.1 µM

## C[C@H](C(=O)NCCCCO)N(c1cc(Cl)ccc1F)S(=O)(=O)c1ccc(Cl)cc1 [Example 1360]
[3]
  IC50: 0.1 to 0.5 µM

## O=[N+]([O-])c1ccc(SCCCOc2ccccc2CN(c2cc(F)ccc2F)S(=O)(=O)c2ccc(Cl)cc2)cc1 [Example 997, 4-chloro-N-(2,5-difluorophenyl)-N-(2-{3-[(4-nitrophenyl)sulfanyl]propoxy}benzyl)benzenesulfonamide]
[4]
  IC50: > 0.5 µM

## N-{3-[2-({[(4-chlorophenyl)sulfonyl]-2,5-difluoroanilino}methyl)phenoxy]propyl}-3-methoxy-N-methylbenzamide [Example 814]
[5]
  IC50: 0.1 to 0.5 µM
